According to paper PMC3306180 (Journal of Medicinal Chemistry, 2012):
Where two headings read alike, the source gives them in different places.

What was measured:
[1] = test system: HL-60 (neutrophil) cells; assay: Human cell growth inhibition assay, HL-60; settings: concentrations up to 10 μM
[2] = test system: human kinases; assay type: biochemical
[3] = test system: CRL-8155 (lymphocytic) cells; assay: Human cell growth inhibition assay, CRL-8155; settings: concentrations up to 10 μM
[4] = test system: T. gondii; assay: T. gondii cell proliferation; assay type: cell-based, Toxoplasma gondii
[5] = generally observed, human kinase panel of Table 4

| SMILES | inhibition of cell growth, HL-60 [1] | differences between IC50 values for TgCDPK1 over human kinases [2, 5] [fold] | inhibition of cell growth, CRL-8155 [3] | block of T. gondii cell invasion/proliferation [4] | differences between IC50 values for TgCDPK1 over human kinases [2] [fold] |
| --- | --- | --- | --- | --- | --- |
| CCOc1ccc2cc(-c3nn(CC4CCNCC4)c4ncnc(N)c34)ccc2n1.Cl [Compound 16n] | no inhibition of cell growth | > 1000 | no inhibition of cell growth |  |  |
| COc1ccc2cc(-c3nn(C(C)C)c4ncnc(N)c34)ccc2c1.Cl [Compound 14a] | no inhibition of cell growth |  | no inhibition of cell growth |  |  |
| CC(C)(C)n1ncc2c(N)ncnc21.Cl [Compound 1b] |  |  |  | do not block T. gondii cell invasion/proliferation |  |
| CCOc1ccc2cc(-c3nn(CC4CCNCC4)c4ncnc(N)c34)ccc2c1.Cl [Compound 15n] | no inhibition of cell growth |  | no inhibition of cell growth |  | > 1000 |
| COc1ccc2cc(-c3nn(CC4CCNCC4)c4ncnc(N)c34)ccc2c1.Cl [Compound 14n] | no inhibition of cell growth | > 1000 | no inhibition of cell growth |  |  |
| CCOc1ccc2cc(-c3nn(C4CCN(C)CC4)c4ncnc(N)c34)ccc2c1.Cl [Compound 15h] | no inhibition of cell growth | > 1000 | no inhibition of cell growth |  |  |
| Cl.Nc1ncnc2c1cnn2CC1CCNCC1 [Compound 1n] |  |  |  | do not block T. gondii cell invasion/proliferation |  |
| CCOc1ccc2cc(-c3nn(CC4CCN(C)CC4)c4ncnc(N)c34)ccc2c1.Cl [Compound 15o] |  | > 1000 |  |  |  |
